Values after ≈ are worked out from the molar mass of the structure shown. Values joined by “and” are separate entries in the source; they are usually repeats but may differ in a detail not shown here. Equal entries are not always repeated. “Also recorded” adds a separate entry of the source.
How the values were obtained:
[1] = test system: HepG2 cells; assay: Hep G2 viability assay (XTT); type: cell-based, human; details: for EC50: Homo sapiens, HepG2 proliferation, 72 h, XTT; for Fungal growth inhibition versus HepG2 proliferation (in words): comparison of MIC and HepG2 EC50
Method: In each well of a 96 well tissue culture plate (Greiner, catalog number GR-655180) 10,000 human hepatocyte HepG2 cells (Sigma-Aldrich, catalog number 85011430) were plated in 200 μL growth media (EMEM (Sigma-Aldrich, catalog number M2279), 2 mM L-Glutamine (Biological Industries, catalog number 03-020-1B), 1% non-essential amino acids (Biosera, catalog number XC-E1154/100), 10% fetal bovine serum (Biological Industries, catalog number BI-04-007-1A)), and incubated overnight at 37°C and 5% CO2. The following day, fresh growth media plus 2 μL compound in DMSO was added. The plate was incubated for a further 72 h at 37°C and 5% CO2. The media was replaced with 100 μL freshly prepared 0.5 mg/mL XTT sodium salt solution (Sigma-Aldrich, catalog number X4251) in RPMI-1640 (Sigma-Aldrich, catalog number R7509) with 3.83 μg/mL phenazine methosulfate (Sigma-Aldrich, catalog number P9625) and incubated 2–3 h at 37°C and 5% CO2. The color reaction was measured on a Victor X5 plate reader (Perkin-Elmer) at OD450, and the half maximal effective concentration (EC50) was calculated indicating the potency of tetrahydrocarbazole derivatives to inhibit HepG2 cell growth. Tamoxifen (Sigma-Aldrich, catalog number 85256) was used as a positive control compound while DMSO served as a negative control.

[2] = biological target: T1, Saccharomyces cerevisiae Pma1 (Saccharomyces cerevisiae, UniProt P05030); assay: ATP hydrolysis inhibition, S. cerevisiae Pma1; type: biochemical; details: for Pma1 inhibition (in words): Pma1 species not specified; for Selectivity among P-type ATPases (in words): Pma1 versus SERCA and Na+,K+-ATPase
T1 construct: containing the full-length cDNA of the S. cerevisiae plasma membrane H^+-ATPase isoform PMA1; made in house; host or cells: Saccharomyces cerevisiae RS72
T1 sequence (P05030 whole entry, canonical isoform): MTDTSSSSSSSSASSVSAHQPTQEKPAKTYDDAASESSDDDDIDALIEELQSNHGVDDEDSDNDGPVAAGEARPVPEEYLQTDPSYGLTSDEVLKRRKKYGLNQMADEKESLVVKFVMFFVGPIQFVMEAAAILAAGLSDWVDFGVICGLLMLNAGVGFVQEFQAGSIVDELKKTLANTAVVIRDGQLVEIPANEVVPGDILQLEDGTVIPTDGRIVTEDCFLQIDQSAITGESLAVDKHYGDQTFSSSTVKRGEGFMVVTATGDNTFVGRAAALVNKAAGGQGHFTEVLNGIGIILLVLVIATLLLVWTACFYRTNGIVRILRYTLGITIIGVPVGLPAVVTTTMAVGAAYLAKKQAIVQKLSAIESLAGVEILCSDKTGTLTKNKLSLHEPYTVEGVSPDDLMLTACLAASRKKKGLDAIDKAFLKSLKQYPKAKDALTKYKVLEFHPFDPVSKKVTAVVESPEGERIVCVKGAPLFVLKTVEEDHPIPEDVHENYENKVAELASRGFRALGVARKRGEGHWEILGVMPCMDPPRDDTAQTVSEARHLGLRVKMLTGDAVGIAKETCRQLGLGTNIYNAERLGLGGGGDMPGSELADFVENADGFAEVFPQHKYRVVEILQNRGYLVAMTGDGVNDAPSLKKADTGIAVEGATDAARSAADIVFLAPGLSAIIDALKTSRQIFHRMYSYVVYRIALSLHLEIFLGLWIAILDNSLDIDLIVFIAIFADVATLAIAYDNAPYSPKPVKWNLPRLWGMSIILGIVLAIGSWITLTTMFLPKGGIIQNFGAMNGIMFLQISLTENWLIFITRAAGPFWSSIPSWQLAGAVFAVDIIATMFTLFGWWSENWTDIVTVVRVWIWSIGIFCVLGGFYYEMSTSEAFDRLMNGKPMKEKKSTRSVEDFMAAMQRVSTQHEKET
Method: The compound libraries were purchased from Enamine Ltd, Ukraine and Chembridge Corp, USA. Library screening was performed in 96 well plates format and each compound was screened in the ATP hydrolysis assay at a final concentration of 20 μM. DMSO was used to determine the maximal ATPase activity and a blank with ATP in absence of Pma1 protein was used to determine the level of spontaneous ATP hydrolysis and used to determine background level. The percentage of compound inhibition was evaluated by subtracting the blank from each data point and normalizing to maximal ATP hydrolysis activity. […] Pma1 inhibitory hit compounds (IC50 <20 μM) with antifungal activity on both S. cerevisiae and C. albicans (MIC <100 μM) were re-purchased and re-evaluated to confirm the potency and identity of the compound.
Plasma membranes containing Pma1 were isolated from Saccharomyces cerevisiae RS72 cells containing the full-length cDNA of the S. cerevisiae plasma membrane H^+-ATPase isoform PMA1 under control of the PMA1 promoter as described.
ATPase activity was determined by measuring the amount of liberated phosphate from ATP hydrolysis. The ATPase assay was performed in 96 well plates in a final reaction volume of 60 μL. 0.1–0.2 μg/well of DOC extracted SERCA membrane or the Na^+,K^+-ATPase was used, while 1–2.5 μg/well was used of the Pma1 membrane preparation. Reactions, including protein membrane preparation and various concentrations of exogenously added compounds, were conducted in the following buffers; Pma1 buffer: 17.5 mM MOPS-NaOH pH 7, 7 mM MgSO4, 44 mM KNO3 (vacuolar ATPase inhibitor), 22 mM NaN3 (mitochondrial ATPase inhibitor), 0.22 mM Na2MoO4 (acid phosphatase inhibitor); SERCA buffer: 9 mM MOPS-NaOH pH 7, 2.7 mM MgCl2, 0.1 mM CaCl2 and 72 mM KCl. Na^+,K^+-ATPase buffer: 30 mM MOPS-NaOH pH 7, 40 mM NaCl, 4 mM MgCl2 and 20 mM KCl. Reactions were initiated by the addition of Na-ATP to a final concentration of 2.5 mM (Pma1 and Na^+,K^+-ATPase) or 5 mM (SERCA), followed by 30 minutes incubation at 30°C. […] Absorption was measured at 860 nm after additional 30 minutes incubation at RT.

[3] = test system: Candida glabrata Cg003; assay: microbe, parasite or virus in culture; type: cell-based; details: for MIC: Nakaseomyces glabratus, CG003, 24 h, read-out: Growth inhibition MIC Candida glabrata Cg003
Method: Fungal isolates were purchased from American Type Culture Collection, except for C. glabrata strain Cg003, which was kindly provided by Julius Subik, Comenius University in Bratislava, Slovak Republic. […] Saccharomyces cerevisiae (ATCC 9763), Candida albicans (ATCC 90028), Candida albicans (SC5314), Candida glabrata (ATCC 90030), Candida glabrata (Cg003) and Candida krusei (ATCC 6258) were grown in Sabouraud broth (40 g/L D-glucose, 10 g/L peptone, pH 5.6) or YPD (10 g/L yeast extract, 20 g/L Bacto-peptone, 20 g/L glucose) medium to mid log phase, aliquoted into 20% (v/v) glycerol and cryopreserved as stocks at -80°C. For each growth assay, cells from these stocks were diluted in sterile water to OD600 = 0.025, which corresponds to a final starting inoculum of 0.5–2.5 x 10^5 CFU/mL. Growth assays were carried out by pipetting 3 μL compound dissolved in DMSO, 100 μL cell suspension and 97 μL 2 x RPMI media (20.8 g/L RPMI-1640 (Sigma-Aldrich catalog number R6504) 330 mM MOPS, 36 g/L glucose) into a microtiter plate and incubating for 24 h at 34°C, followed by OD measurement at 490 nm.

[4] = ATP hydrolysis IC50 Saccharomyces cerevisiae Pma1, racemic compounds, n = 3
[5] = Pma1 IC50, Pma1 species not specified

SMILES | EC50 [1] [µM] | Fungal growth inhibition versus HepG2 proliferation (in words) [1] | IC50 [2, 4] | Pma1 inhibition (in words) [2] | MIC [3] [µM] | Selectivity among P-type ATPases (in words) [2] | IC50 [2, 5] [µM] | Antifungal activity against C. glabrata strain Cg003 (in words) ([3]; strain overexpresses efflux pumps Cdr1p and Cdr2p)
NC1CCCc2c1[nH]c1cc(OC(F)(F)F)ccc21 (centres unmarked) [Compound 4] | 3.5 ± 1.87 | more potent at inhibiting HepG2 proliferation than fungal growth | 75 ± 3.2 µM | weak inhibitors of Pma1 | 75 (≈ 20.3 µg/mL) | – | – | –
CN1CCC(NC2CCCc3c2[nH]c2cc(OC(F)(F)F)ccc32)CC1 (centres unmarked) [Compound 5] | 4.7 ± 3.4 | more potent at inhibiting HepG2 proliferation than fungal growth | 85.9 ± 10.3 µM | weak inhibitors of Pma1 | > 75 | – | – | –
FC(F)(F)Oc1ccc2c3c([nH]c2c1)C(NCc1ccc(Cl)cc1)CCC3 (centres unmarked) [Compound 6] | 16.7 ± 3.54 | inhibited fungal growth more strongly than HepG2 proliferation | 2.79 ± 0.36 µM | – | > 75 | more potent in inhibiting SERCA and the Na^+,K^+-ATPase than Pma1 | – | –
FC(F)(F)Oc1ccc2c3c([nH]c2c1)C(NCc1ccc(Br)cc1)CCC3 (centres unmarked) [Compound 7] | 14.9 ± 0.26 | – | 2.43 ± 0.39 µM | – | > 75 | more potent in inhibiting SERCA and the Na^+,K^+-ATPase than Pma1 | – | –
FC(F)(F)Oc1ccc2c3c([nH]c2c1)C(NCCOc1ccc(Cl)cc1)CCC3 (centres unmarked) [Compound 8] | 13.6 ± 1.33 | inhibited fungal growth more strongly than HepG2 proliferation | 3.57 ± 1.81 µM | – | > 75 | more potent in inhibiting SERCA and the Na^+,K^+-ATPase than Pma1 | – | –
FC(F)(F)Oc1ccc2[nH]c3c(c2c1)CCCC3NCc1ccc(-c2ccccn2)cc1 (centres unmarked) [Compound 9] | 12.5 ± 3.68 | inhibited fungal growth more strongly than HepG2 proliferation | 4.73 ± 2.23 µM | – | 23.7 (≈ 10.4 µg/mL) | – | 5 to 7 | exhibited antifungal activity
Clc1ccc2[nH]c3c(c2c1)CCCC3NCc1ccc(-c2ccccc2)cc1 (centres unmarked) [Compound 10] | 18.6 ± 1.12 | inhibited fungal growth more strongly than HepG2 proliferation | 7 µM and 6.69 µM | – | > 75 | – | 5 to 7 | –
Cn1c2c(c3cc(Cl)ccc31)CCCC2NCc1ccc(-c2ccccc2)cc1 (centres unmarked) [Compound 11] | > 20 | – | > 20 µM | no activity against Pma1; also recorded: no inhibitory effect on Pma1 | > 20 | – | – | –
CN(Cc1ccc(-c2ccccc2)cc1)C1CCCc2c1[nH]c1ccc(Cl)cc21 (centres unmarked) [Compound 12] | > 20 | – | > 20 µM | no activity against Pma1; also recorded: no inhibitory effect on Pma1 | > 20 | weakly selective for Na^+,K^+-ATPase only | – | –
